Here are results for 5 compounds from patent US20240261375A1, “PHARMACEUTICAL COMPOSITION FOR TREATING OR PREVENTING DISORDER ASSOCIATED WITH ADMINISTRATION OF ANTICANCER AGENT” (LTT BIO-PHARMA CO., LTD., priority 2021, published 2024).

Read-outs that look alike come from different tables or passages of the source.

Data set [1] relates to RAW cells. As to the kind of experiment: Active oxygen production in RAW cells (MitoSOX Red). The class given is cell-based. Here is the method:
RAW cells were seeded on a 96-well plate for fluorescence at 20 000 cells/well (D-MEM high glucose medium containing 10% inactivated FBS). […] Sixteen hours later, cells were treated with an HBSS solution containing dissolved MitoSOX™ Red Mitochondrial Superoxide Indicator (Invitrogen™) for 30 minutes, and the medium was replaced with D-MEM high glucose medium containing 1% inactivated FBS. Active oxygen production in mitochondria was determined by measuring fluorescence (Ex 510 nm, Em 580 nm) by using a plate reader (Infinite M Plex, Tecan). Cells for four wells were analyzed for each group.

Data set [2] has as its system RAW cells. As to the kind of experiment: Toxicity of anticancer agents against RAW cells (CellTiter-Glo viable cell count). The data set is classed as cell-based. Here is the method:
RAW cells were seeded on a 96-well plate at 20 000 cells/well (D-MEM high glucose medium containing 10% inactivated FBS). […] The number of viable cells was counted 24 hours later by measuring chemical luminescence by using CellTiter-Glo™ 2.0 Cell Viability Assay (Promega) and a plate reader (Tecan, Infinite M Plex). Cells for four wells were analyzed for each group.

The subject of data set [3] is Large intestine cancer cells (colo320, HCT116). As to the kind of experiment: Proliferation of large intestine cancer cells (CCK-8). The conditions noted are these: OXA alone, 3-fold dilutions from 100 μM, 72 hours; FIG. 6. The class given is cell-based. Here is the method:
Large intestine cancer cells (colo320, HCT116) were added to RPM1640 medium (Thermo Fisher Scientific Inc.) containing 10% fetal bovine serum and 100 units/mL penicillin-streptomycin (Gibco BRL) and cultured at 37° C. in a 5% CO2 incubator.
Cells were seeded on a 96-well plate at 10 000 cells/well and treated with a test solution 24 hours later. A test solution containing OXA alone was diluted 3-fold from 100 μM (10 levels) and added to a 96-well plate. A test solution containing OXA+PC-SOD was obtained by adding the same concentrations of OXA to PC-SOD (50 μg/mL) (n=3 per group). After cells were cultured for 72 hours, a CCK-8 solution was added in a volume of 1/10 of the solution in each well, and the mixture was measured at 490 nm of absorbance (Tecan, Tecan Japan). Data were expressed with mean±standard error (SEM). It should be noted that experiment conditions were allowed to be changed as required.

Data set [4] has as its system liver of OXA-treated rats. As to the kind of experiment: Pathological assessment of liver disorder caused by oxaliplatin (HE staining). The data set is classed as in vivo, rat. As to conditions: PC-SOD 1 mg/kg, mangafodipir dose not given, FIG. 5. The source says: A liver tissue was collected and fixed with 10% neutral buffered formalin to prepare a paraffin block by using Histos 5 (Milestone) and an embedding center (EG1160, Leica). The sample block was thinly sliced at a thickness of 3 μm by using a microtome (MR2245, Leica) to prepare a slide. The prepared slide was stained by HE staining, enclosed, and observed at 200 and 400-fold magnifications by using the optical microscope function of All-in-One Fluorescence Microscope (BZ-X800, Keyence Corporation). Observation and assessment were performed by observing the whole section. Two to four representative tissue images were randomly taken up, and alteration in the tissue structure, such as inflammation and necrosis, was observed and assessed (Scale bar=200 μm).

In data set [5] the test system is PC12 cells differentiated by NGF. Description: Neurite retraction in NGF-differentiated PC12 cells caused by anticancer agents. The data set is classed as cell-based, rat. The conditions noted are these: oxaliplatin 20 μM, 24 hours, FIG. 8. Here is the method: Rat adrenal gland pheochromocytoma-derived PC12 cells are known to be differentiated into neuron-like cells having neurites by nerve growth factor (NGF) and are widely used as a nerve cell model. To assess the neurite-protective action of PC-SOD, the effect of PC-SOD in neurite disorder caused by various anticancer agents was analyzed by using PC12 cells differentiated by NGF.
PC12 cells were seeded on a 24-well plate coated with collagen at 5 000 cells/well. […] The images of cells were captured by using a microscope (BZ-X800, Keyence Corporation), and the neurite lengths were measured by using an image analysis software ImageJ (NIH).
PC12 cells were seeded on a 24-well plate coated with collagen at 5 000 cells/well. […] After neurite elongation, cells were cultured by using differentiation media each containing carboplatin (with a final concentration of 50 μM) alone or carboplatin and PC-SOD (with final concentrations of 10, 20, 50, and 100 μg/mL) for 24 hours. The images of cells were captured by using a microscope (BZ-X800, Keyence Corporation), and the neurite lengths were measured by using an image analysis software ImageJ (NIH).
PC12 cells were seeded on a 24-well plate coated with collagen at 5 000 cells/well. […] After neurite elongation, cells were cultured by using differentiation media each containing paclitaxel (abbreviated as PTX in the figure of results) alone (with a final concentration of 0.1 μM) or paclitaxel and PC-SOD (with final concentrations of 10, 50, and 100 μg/mL) for 24 hours. The images of cells were captured by using a microscope (BZ-X800, Keyence Corporation), and the neurite lengths were measured by using an image analysis software ImageJ (NIH).

[6] abbreviates: anticancer agent alone, 16 hours, FIG. 13-1.
The mark [7] stands for this setting: anticancer agent alone, 24 hours, FIG. 12-1.

With `N.N.O=C([O-])C1(C(=O)[O-])CCC1.[Pt+2]` [carboplatin], in the data set on RAW cells [1] (setting [6]), the “active oxygen production in mitochondria of RAW cells” value (“active oxygen production” for short) is on record as “induced active oxygen production dependently on the concentration of the anticancer agent”. Further, the “number of viable RAW cells” value with RAW cells [2] (setting [7]) is “decreased the number of viable cells dependently on the concentration of the anticancer agent”.
Take `N.N.[Cl][Pt][Cl]` [cisplatin]: the “active oxygen production” value with RAW cells [1] was “induced active oxygen production dependently on the concentration of the anticancer agent”.
Turning to `Nc1ccn([C@@H]2O[C@H](CO)[C@@H](O)C2(F)F)c(=O)n1` [gemcitabine], the “active oxygen production” value in the data set with RAW cells [1] is “induced active oxygen production dependently on the concentration of the anticancer agent”. The “number of viable RAW cells” value in the data set on RAW cells [2] is “decreased the number of viable cells dependently on the concentration of the anticancer agent”.
Consider `O=C1[O][Pt]2([NH][C@@H]3CCCC[C@H]3[NH]2)[O]C1=O` [oxaliplatin], for which the “proliferation of large intestine cancer cells” value in data set [3] is reported as “Suppression of proliferation of large intestine cancer cells caused by OXA was confirmed”. In addition, in the data set with RAW cells [1] (setting [6]), the “active oxygen production” value was “induced active oxygen production dependently on the concentration of the anticancer agent”. In addition, the “number of viable RAW cells” value in the data set on RAW cells [2] (setting [7]) is “decreased the number of viable cells dependently on the concentration of the anticancer agent”.
Consider mangafodipir [reference compound], for which, in data set [4], the “necrosis of liver cells caused by OXA” value is listed as “the suppressive effect on necrosis of liver cells caused by OXA was not observed”. The “neurite retraction caused by oxaliplatin” value is “a weak suppressing tendency was observed” in data set [5] (test substance 5 μg/mL) and “no higher retraction suppressing effect was observed” in data set [5] (test substance at concentrations higher than 5 μg/mL (up to 50 μg/mL)).
